The values below come from patent US8697725B2, “Tetrahydroquinoline derivatives and their pharmaceutical use” (GlaxoSmithKline LLC, priority 2009, dated 2014).

Where a name gives a salt, the structure may show the parent alone.

For this experiment, the system named is IL-6. Put plainly: Measurement of LPS Induced IL-6 Secretion from Whole Blood. The experiment is classed as cell-based. Particulars: 24 h, LPS 200 ng/ml, immunoassay, read-out: pIC50, LPS induced IL-6 secretion from whole blood (converted). The protocol:
Measurement of LPS Induced IL-6 Secretion from Whole Blood
Activation of monocytic cells by agonists of toll-like receptors such as bacterial lipopolysaccharide (LPS) results in production of key inflammatory mediators including IL-6. Such pathways are widely considered to be central to the pathophysiology of a range of auto-immune and inflammatory disorders.
Compounds to be tested are diluted to give a range of appropriate concentrations of which 1 ul of the diluted stocks is added to a 96 well plate. Following addition of whole blood (130 ul) the plates are incubated at 37 degrees (5% CO2) for 30 min before the addition of 10 ul of 2.8 ug/ml LPS, diluted in complete RPMI 1640 (final concentration=200 ng/ml), to give a total volume of 140 ul per well. After further incubation for 24 hours at 37 degrees, 140 ul of PBS are added to each well. The plates are sealed, shaken for 10 minutes and then centrifuged (2500 rpm×10 min). 100 ul of the supernatant are removed and IL-6 levels assayed by immunoassay (typically by MesoScale Discovery technology) either immediately or following storage at −20 degrees. Concentration response curves for each compound was generated from the data and an IC50 value was calculated.

Consider `CC(=O)N1c2ccc(-n3cnc(C(=O)O)c3)cc2[C@@H](NC(=O)OC(C)C)C[C@H]1C` (racemic) [Example 87, 1-[(Cis)-1-acetyl-2-methyl-4-({[(1-methylethyl)oxy]carbonyl}amino)-1,2,3,4-tetrahydro-6-quinolinyl]-1H-imidazole-4-carboxylic acid], for which the IC50 is at most 31.6 µM. On to `CC(=O)N1c2ccc(-n3cnc(CO)c3)cc2[C@@H](NC(=O)OC(C)C)C[C@H]1C` (racemic) [Example 89, 1-Methylethyl {(cis)-1-acetyl-6-[4-(hydroxymethyl)-1H-imidazol-1-yl]-2-methyl-1,2,3,4-tetrahydro-4-quinolinyl}carbamate], for which the IC50 was at most 31.6 µM. Turning to `CC(=O)N1c2ccc(-c3cn(CC(=O)O)cn3)cc2[C@@H](NC(=O)OC(C)C)C[C@H]1C` (racemic) [Example 90, {4-[(Cis)-1-acetyl-2-methyl-4-({[(1-methylethyl)oxy]carbonyl}amino)-1,2,3,4-tetrahydro-6-quinolinyl]-1H-imidazol-1-yl}acetic acid trifluoroacetate], the IC50 was at most 31.6 µM. Consider `CC(=O)N1c2ccc(-n3cnc(CNCCO)c3)cc2[C@@H](NC(=O)OC(C)C)C[C@H]1C` (racemic) [Example 92, 1-Methylethyl[(cis)-1-acetyl-6-(4-{[(2-hydroxyethyl)amino]methyl}-1H-imidazol-1-yl)-2-methyl-1,2,3,4-tetrahydro-4-quinolinyl]carbamate], for which the IC50 was at most 31.6 µM. Then `CC(=O)N1c2ccc(-c3cn(CCC(=O)O)cn3)cc2[C@@H](NC(=O)OC(C)C)C[C@H]1C` (racemic) [Example 99, 3-{(Cis)-4-[1-acetyl-2-methyl-4-({[(1-methylethyl)oxy]carbonyl}amino)-1,2,3,4-tetrahydro-6-quinolinyl]-1H-imidazol-1-yl}propanoic acid trifluoroacetate], with at most 31.6 µM.

As to `CC(=O)N1c2ccc(-n3cnc(C)c3)cc2[C@H](NC(=O)OC(C)(C)C)C[C@@H]1C` (relative stereo) [Example 123, 1,1-Dimethylethyl[(cis)-1-acetyl-2-methyl-6-(4-methyl-1H-imidazol-1-yl)-1,2,3,4-tetrahydro-4-quinolinyl]carbamate], the IC50 was at most 31.6 µM. Regarding `CC(=O)N1c2ccc(-n3cnc(C)c3)cc2[C@H](NC(=O)OC(C)C)C[C@@H]1C` (single isomer, unassigned) [Example 103], the IC50 was at most 31.6 µM.

As for `CC(=O)N1c2ccc(-c3noc(C)n3)cc2[C@H](NC(=O)OC(C)C)C[C@@H]1C` [Example 64, 1-Methylethyl[(2S,4R)-1-acetyl-2-methyl-6-(5-methyl-1,2,4-oxadiazol-3-yl)-1,2,3,4-tetrahydro-4-quinolinyl]carbamate], the IC50 was at most 31.6 µM. Turning to `CC(=O)N1c2ccc(-c3c[nH]nn3)cc2[C@H](NC(=O)OC(C)C)C[C@@H]1C` [Example 65, 1-Methylethyl[(2S,4R)-1-acetyl-2-methyl-6-(1H-1,2,3-triazol-4-yl)-1,2,3,4-tetrahydro-4-quinolinyl]carbamate], the IC50 is at most 31.6 µM. Then `CC(=O)N1c2ccc(-c3noc(CN)n3)cc2[C@H](NC(=O)OC(C)C)C[C@@H]1C` [Example 66, 1-Methylethyl {(2S,4R)-1-acetyl-6-[5-(aminomethyl)-1,2,4-oxadiazol-3-yl]-2-methyl-1,2,3,4-tetrahydro-4-quinolinyl}carbamate hydrochloride], with at most 31.6 µM; and `CC(=O)N1c2ccc(-c3ccc(CC(=O)O)cc3)cc2[C@H](NC(=O)OC(C)C)C[C@@H]1C` [Example 67, {4-[(2S,4R)-1-Acetyl-2-methyl-4-({[(1-methylethyl)oxy]carbonyl}amino)-1,2,3,4-tetrahydro-6-quinolinyl]phenyl}acetic acid], with at most 31.6 µM. Then `CC(=O)N1c2ccc(-c3nnc(C)s3)cc2[C@H](NC(=O)OC(C)C)C[C@@H]1C` [Example 68, 1-Methylethyl[(2S,4R)-1-acetyl-2-methyl-6-(5-methyl-1,3,4-thiadiazol-2-yl)-1,2,3,4-tetrahydro-4-quinolinyl]carbamate], with at most 31.6 µM; and `CC(=O)N1c2ccc(-c3nc(CN)no3)cc2[C@H](NC(=O)OC(C)C)C[C@@H]1C` [Example 69, 1-Methylethyl {(2S,4R)-1-acetyl-6-[3-(aminomethyl)-1,2,4-oxadiazol-5-yl]-2-methyl-1,2,3,4-tetrahydro-4-quinolinyl}carbamate hydrochloride], with at most 31.6 µM; and `CC(=O)N1c2ccc(-c3nc(CCN)no3)cc2[C@H](NC(=O)OC(C)C)C[C@@H]1C` [Example 70, 1-Methylethyl {(2S,4R)-1-acetyl-6-[3-(2-aminoethyl)-1,2,4-oxadiazol-5-yl]-2-methyl-1,2,3,4-tetrahydro-4-quinolinyl}carbamate hydrochloride], with at most 31.6 µM. For the compound `CNCCc1noc(-c2ccc3c(c2)[C@H](NC(=O)OC(C)C)C[C@H](C)N3C(C)=O)n1` [Example 71, 1-Methylethyl((2S,4R)-1-acetyl-2-methyl-6-{3-[2-(methylamino)ethyl]-1,2,4-oxadiazol-5-yl}-1,2,3,4-tetrahydro-4-quinolinyl)carbamate hydrochloride], the IC50 was at most 31.6 µM. For `CC(=O)N1c2ccc(-c3cn(CCCN)nn3)cc2[C@H](NC(=O)OC(C)C)C[C@@H]1C` [Example 74, 1-Methylethyl {(2S,4R)-1-acetyl-6-[1-(3-aminopropyl)-1H-1,2,3-triazol-4-yl]-2-methyl-1,2,3,4-tetrahydro-4-quinolinyl}carbamate hydrochloride], the IC50 is at most 31.6 µM.

Consider `CC(=O)N1c2ccc(-c3cn(CC(=O)O)nn3)cc2[C@H](NC(=O)OC(C)C)C[C@@H]1C` [Example 76, {4-[(2S,4R)-1-Acetyl-2-methyl-4-({[(1-methylethyl)oxy]carbonyl}amino)-1,2,3,4-tetrahydro-6-quinolinyl]-1H-1,2,3-triazol-1-yl}acetic acid], for which the IC50 was at most 31.6 µM. In the case of `CC(=O)N1c2ccc(-c3noc(CCN)n3)cc2[C@H](NC(=O)OC(C)C)C[C@@H]1C` [Example 77, 1-Methylethyl {(2S,4R)-1-acetyl-6-[5-(2-aminoethyl)-1,2,4-oxadiazol-3-yl]-2-methyl-1,2,3,4-tetrahydro-4-quinolinyl}carbamate hydrochloride], the IC50 was at most 31.6 µM. Turning to `CC(=O)N1c2ccc(-c3noc(CCN(C)C)n3)cc2[C@H](NC(=O)OC(C)C)C[C@@H]1C` [Example 78, 1-Methylethyl((2S,4R)-1-acetyl-6-{5-[2-(dimethylamino)ethyl]-1,2,4-oxadiazol-3-yl}-2-methyl-1,2,3,4-tetrahydro-4-quinolinyl)carbamate hydrochloride], the IC50 was at most 31.6 µM. Turning to `CC(=O)N1c2ccc(-c3cn(CCN)nn3)cc2[C@H](NC(=O)OC(C)C)C[C@@H]1C` [Example 79, 1-Methylethyl {(2S,4R)-1-acetyl-6-[1-(2-aminoethyl)-1H-1,2,3-triazol-4-yl]-2-methyl-1,2,3,4-tetrahydro-4-quinolinyl}carbamate hydrochloride], the IC50 is at most 31.6 µM. For `CC(=O)N1c2ccc(-c3cn(CCCN(C)C)nn3)cc2[C@H](NC(=O)OC(C)C)C[C@@H]1C` [Example 81, 1-Methylethyl((2S,4R)-1-acetyl-6-{1-[3-(dimethylamino)propyl]-1H-1,2,3-triazol-4-yl}-2-methyl-1,2,3,4-tetrahydro-4-quinolinyl)carbamate formate salt], the IC50 is at most 31.6 µM.

For the compound `CC(=O)N1c2ccc(-c3cncn3C)cc2[C@H](NC(=O)OC(C)C)C[C@@H]1C` [Example 82, 1-Methylethyl[(2S,4R)-1-acetyl-2-methyl-6-(1-methyl-1H-imidazol-5-yl)-1,2,3,4-tetrahydro-4-quinolinyl]carbamate], the IC50 was at most 31.6 µM. Regarding `CC(=O)N1c2ccc(-c3cn(C)cn3)cc2[C@H](NC(=O)OC(C)C)CC1C` (stereo partly drawn) [Example 83, 1-Methylethyl[(2S,4R)-1-acetyl-2-methyl-6-(1-methyl-1H-imidazol-4-yl)-1,2,3,4-tetrahydro-4-quinolinyl]carbamate hydrochloride], the IC50 is at most 31.6 µM. Then `CC(=O)N1c2ccc(-n3cnc(C)c3)cc2[C@H](NC(=O)OC(C)C)C[C@@H]1C` [Example 84, 1-Methylethyl[(2S,4R)-1-acetyl-2-methyl-6-(4-methyl-1H-imidazol-1-yl)-1,2,3,4-tetrahydro-4-quinolinyl]carbamate], with at most 31.6 µM; and `CC(=O)N1c2ccc(-c3cn(CCN)cn3)cc2[C@H](NC(=O)OC(C)C)C[C@@H]1C` [Example 85, 1-Methylethyl {(2S,4R)-1-acetyl-6-[1-(2-aminoethyl)-1H-imidazol-4-yl]-2-methyl-1,2,3,4-tetrahydro-4-quinolinyl}carbamate hydrochloride], with at most 31.6 µM. Regarding `CC(=O)N1c2ccc(-c3ncc[nH]3)cc2[C@H](NC(=O)OC(C)C)C[C@@H]1C` [Example 86, 1-Methylethyl[(2S,4R)-1-acetyl-6-(1H-imidazol-2-yl)-2-methyl-1,2,3,4-tetrahydro-4-quinolinyl]carbamate], the IC50 is at most 31.6 µM. Consider `CC(=O)N1c2ccc(-n3ccnc3C)cc2[C@H](NC(=O)OC(C)C)C[C@@H]1C` [Example 88, 1-Methylethyl[(2S,4R)-1-acetyl-2-methyl-6-(2-methyl-1H-imidazol-1-yl)-1,2,3,4-tetrahydro-4-quinolinyl]carbamate], for which the IC50 was at most 31.6 µM.
